In article PMC6804253, “Predicting and Experimentally Validating Hot-Spot Residues at Protein–Protein Interfaces” (ACS Chemical Biology, 2019):
Like-named read-outs stand apart in the source and are kept apart here.

Experiments:
[1] = system: PPIs of the SKEMPI data set (by PDBID); experiment: SKEMPI experimental ΔΔG, single mutations to alanine; assay type: binding; details: for sk_class: class of the SKEMPI experimental ΔΔG; for sk_class (class of the SKEMPI experimental ΔΔG): class by ΔΔG threshold 4.184 kJ/mol
[2] = system: PPIs of the SKEMPI data set (by PDBID); details: single mutation to alanine, ref SKEMPI, cited from earlier work; for sk_ddG_kJ: SKEMPI experimental ΔΔG of binding, complex by PDBID; for sk_ddG_kJ (SKEMPI experimental ΔΔG, mutation to alanine): PPI given by PDBID, r_group DERKH
[3] = complex given by PDBID, mutation by mut_pdb

Row | Substance | sk_class ([1]; ref SKEMPI) | sk_ddG_kJ [2] [kJ] | sk_class (class of the SKEMPI experimental ΔΔG) ([1]; ref SKEMPI) | sk_ddG_kJ (SKEMPI experimental ΔΔG, mutation to alanine) ([2]; sheet sortedByGroup) [kJ] | further results
1 | 1A4Y EB108A | Neutral (neutral (little effect) 4.184 kJ/mol < ΔΔG > −4.184 kJ/mol) | -1.34 | – | – | –
2 | 1A4Y HB8A | – | – | Neutral (neutral (little effect) 4.184 kJ/mol < ΔΔG > −4.184 kJ/mol) | 3.77 | –
3 | 1A4Y HB13A | – | – | Neutral (neutral (little effect) 4.184 kJ/mol < ΔΔG > −4.184 kJ/mol) | -1.42 | –
4 | 1A4Y HB84A | Neutral (neutral (little effect) 4.184 kJ/mol < ΔΔG > −4.184 kJ/mol) | 0.71 | – | – | –
5 | 1A4Y NB68A | – | – | – | – | sk_class [1]: Neutral (neutral (little effect) 4.184 kJ/mol < ΔΔG > −4.184 kJ/mol); sk_ddG_kJ (SKEMPI experimental ΔΔG) ([2]; complex given by PDBID, residue group SQNT): 0.50 kJ
6 | 1A4Y QB12A | – | – | – | – | sk_class [1]: Neutral (neutral (little effect) 4.184 kJ/mol < ΔΔG > −4.184 kJ/mol); sk_ddG_kJ (SKEMPI experimental ΔΔG) [2, 3]: 1.26 kJ
7 | 1A4Y RB5A | – | – | Positive (positive (a hot residue) ΔΔG ≥ 4.184 kJ/mol) | 9.67 | –
8 | 1A4Y RB31A | – | – | Neutral (neutral (little effect) 4.184 kJ/mol < ΔΔG > −4.184 kJ/mol) | 1.05 | –
9 | 1A4Y RB32A | Neutral (neutral (little effect) 4.184 kJ/mol < ΔΔG > −4.184 kJ/mol) | 3.77 | – | – | –
10 | 1A4Y RB33A | Neutral (neutral (little effect) 4.184 kJ/mol < ΔΔG > −4.184 kJ/mol) | 1.38 | – | – | –
11 | 1A4Y RB66A | Neutral (neutral (little effect) 4.184 kJ/mol < ΔΔG > −4.184 kJ/mol) | 0.84 | – | – | –
12 | 1A4Y RB70A | Neutral (neutral (little effect) 4.184 kJ/mol < ΔΔG > −4.184 kJ/mol) | -1.05 | – | – | –
13 | 1A4Y WB89A | – | – | – | – | sk_class [1]: Neutral (neutral (little effect) 4.184 kJ/mol < ΔΔG > −4.184 kJ/mol); sk_ddG_kJ (SKEMPI experimental ΔΔG) ([2]; sheet sortedByGroup, r_group FAMILYVW): 0.96 kJ
14 | 1A22 CA182A | – | – | – | – | sk_class [1]: Positive (positive (a hot residue) ΔΔG ≥ 4.184 kJ/mol); sk_ddG_kJ (SKEMPI experimental ΔΔG) [2, 3]: 4.23 kJ
15 | 1A22 DA171A | – | – | Neutral (neutral (little effect) 4.184 kJ/mol < ΔΔG > −4.184 kJ/mol) | 3.35 | –
16 | 1A22 EA66A | – | – | Neutral (neutral (little effect) 4.184 kJ/mol < ΔΔG > −4.184 kJ/mol) | 1.80 | –
17 | 1A22 EA174A | – | – | Neutral (neutral (little effect) 4.184 kJ/mol < ΔΔG > −4.184 kJ/mol) | -3.77 | –
18 | 1A22 EA186A | – | – | Neutral (neutral (little effect) 4.184 kJ/mol < ΔΔG > −4.184 kJ/mol) | 0.00 | –
